Tested on: normal human dermal fibroblasts
Assay: Synthesis of glycosaminoglycans (hyaluronic acid): incorporation of radioactivity into the matrix neosynthesized by fibroblast cultures
Assay type: cell-based
Conditions: 72 hours incubation; for cpm (radioactivity incorporated into matrix GAGs): 35S-sulphate during final 24 hours; for %/control: relative to the control (100)
Protocol: The study was carried out by measuring the incorporation of radioactive glucosamine into the matrix neosynthesized by normal human dermal fibroblast cultures. The incorporation of radioactive glucosamine indicates specific neosynthesis of glycosaminoglycans via incorporation of the sulphated form of this glucosamine.
Normal human dermal fibroblasts were seeded in the conventional culture medium and were then preincubated for 24 hours. The culture medium was then replaced with the test compounds at concentrations of 0.3, 1 and 3 mM; or culture medium (control); or TGFβ at 10 ng/ml (quality control). The cells were incubated for 72 hours with the addition of ^35S-sulphate during the final 24 hours of culture. The GAGs in the matrix were extracted with a chaotropic buffer and then purified by ion exchange chromatography (adsorption of the anionic molecules onto Q-sepharose beads under high stringency conditions, followed by desorption of the weakly and moderately anionic molecules with urea). The radioactivity incorporated into the very […] molecules that remained on the support were counted by liquid scintillation.
The results are expressed as percentage relative to the control: […]

C[C@H](O)C[C@@H]1OC[C@@H](O)[C@H](O)[C@H]1O [Example 1, C-β-D-xylopyranoside-2-(S)-hydroxypropane]
cpm (radioactivity incorporated into matrix GAGs) (0.3 mM): 16276 cpm | %/control (0.3 mM): 325% | cpm (radioactivity incorporated into matrix GAGs) (1 mM): 30943 cpm | %/control (1 mM): 618% | cpm (radioactivity incorporated into matrix GAGs) (3 mM): 40770 cpm | %/control (3 mM): 814%

TGFβ [reference compound]
cpm (radioactivity incorporated into matrix GAGs) (10 ng/ml): 9625 cpm | %/control (10 ng/ml): 192%

From patent US20080146516A1, “Novel C-Glycosides, uses thereof” (L 'OREAL SA, priority 2004, published 2008)
